# Test results published in the NIST ThermoML archive (doi:10.1016/j.fluid.2018.04.025).
# Numbers after ± are expanded uncertainties.
# Legend:
# [1] = 101.3 kPa, Liquid; for viscosity: Falling or rolling sphere viscometry; for speed of sound: Frequency=3 MHz, Sing-around technique in a fixed-path interferometer; for mass density: Vibrating tube method
# [2] = xn = mol fraction of the nth substance listed; settings: 101 kPa, Liquid, x2 = 0; for viscosity: Falling or rolling sphere viscometry; for speed of sound: Frequency=3 MHz, Sing-around technique in a fixed-path interferometer; for mass density: Vibrating tube method
Compound,viscosity ([2]; 298.15 K),speed of sound ([2]; 298.15 K),mass density ([2]; 298.15 K),viscosity ([2]; 303.15 K),speed of sound ([2]; 303.15 K),mass density ([2]; 303.15 K),viscosity ([2]; 308.15 K),speed of sound ([2]; 308.15 K),mass density ([2]; 308.15 K),viscosity ([2]; 313.15 K),speed of sound ([2]; 313.15 K),mass density ([2]; 313.15 K),viscosity ([2]; 318.15 K),speed of sound ([2]; 318.15 K),mass density ([2]; 318.15 K),viscosity ([2]; 323.15 K),speed of sound ([2]; 323.15 K),mass density ([2]; 323.15 K),also measured
CCCC[n+]1ccn(C)c1.O=S(=O)([N-]S(=O)(=O)C(F)(F)F)C(F)(F)F,–,–,–,–,–,–,–,–,–,–,–,–,–,–,–,–,–,–,viscosity ([1]; 298.15 K): 51.15 ± 0.74 mPa·s; speed of sound ([1]; 298.15 K): 1227.3 ± 2.1 m/s; mass density ([1]; 298.15 K): 1436.02 ± 1.9 kg/m3; viscosity ([1]; 303.15 K): 41.88 ± 0.74 mPa·s; speed of sound ([1]; 303.15 K): 1216.3 ± 2.1 m/s; mass density ([1]; 303.15 K): 1431.22 ± 1.9 kg/m3; viscosity ([1]; 308.15 K): 34.58 ± 0.67 mPa·s; speed of sound ([1]; 308.15 K): 1205.5 ± 2.1 m/s; mass density ([1]; 308.15 K): 1426.43 ± 1.8 kg/m3; viscosity ([1]; 313.15 K): 28.98 ± 0.62 mPa·s; speed of sound ([1]; 313.15 K): 1194.7 ± 2.1 m/s; mass density ([1]; 313.15 K): 1421.64 ± 1.8 kg/m3; viscosity ([1]; 318.15 K): 24.6 ± 0.59 mPa·s; speed of sound ([1]; 318.15 K): 1184 ± 2.1 m/s; mass density ([1]; 318.15 K): 1416.84 ± 1.8 kg/m3; viscosity ([1]; 323.15 K): 21.1 ± 0.57 mPa·s; speed of sound ([1]; 323.15 K): 1173.5 ± 2.1 m/s; mass density ([1]; 323.15 K): 1411.89 ± 1.8 kg/m3
CCCCO [butan-1-ol] + CCCC[n+]1ccn(C)c1.O=S(=O)([N-]S(=O)(=O)C(F)(F)F)C(F)(F)F,2.57 ± 0.6 mPa·s,1242.4 ± 1 m/s,806.704 ± 0.17 kg/m3,2.26 ± 0.6 mPa·s,1225.5 ± 1 m/s,802.704 ± 0.17 kg/m3,1.99 ± 0.6 mPa·s,1208.7 ± 1 m/s,798.992 ± 0.17 kg/m3,1.77 ± 0.6 mPa·s,1192 ± 1 m/s,795.065 ± 0.17 kg/m3,1.58 ± 0.6 mPa·s,1175.4 ± 1 m/s,791.094 ± 0.18 kg/m3,1.41 ± 0.6 mPa·s,1158.8 ± 1 m/s,787.075 ± 0.18 kg/m3,–
CCCO [propan-1-ol] + CCCC[n+]1ccn(C)c1.O=S(=O)([N-]S(=O)(=O)C(F)(F)F)C(F)(F)F,1.89 ± 0.6 mPa·s,1206.6 ± 0.86 m/s,799.924 ± 0.14 kg/m3,1.69 ± 0.6 mPa·s,1189.5 ± 0.86 m/s,795.888 ± 0.14 kg/m3,1.51 ± 0.6 mPa·s,1172.5 ± 0.85 m/s,791.815 ± 0.14 kg/m3,1.35 ± 0.6 mPa·s,1155.6 ± 0.85 m/s,787.7 ± 0.14 kg/m3,1.22 ± 0.6 mPa·s,1138.8 ± 0.84 m/s,783.538 ± 0.15 kg/m3,1.09 mPa·s,1122 ± 0.84 m/s,779.321 ± 0.15 kg/m3,–
